In data set [1] the test system is Cdk5/p25 transfected HEK293 cells. As to the kind of experiment: NMHC-B (pSerCdk substrate) phosphorylation by Western blot in Cdk5/p25 transfected HEK293 cells. As to conditions: for IC50: Homo sapiens, 4 hours treatment, Western blot, read-out: IC50, inhibition of pSerCdk substrate (NMHC-B) phosphorylation. It is filed as cell-based, human. As to the method: (§1) The inhibition curves were analysed by non-linear regression using Graph Pad Prism.
Background: Immunoblotting shows a protein as a band on a membrane.

In data set [2] the target is recombinant human Cdk5/p25 (Homo sapiens, UniProt Q00535). As to the kind of experiment: Scintillation Proximity Assay (SPA), peptide substrate phosphorylation. The class given is biochemical. As to conditions: recombinant human Cdk5/p25 3.3 nM, 2 μM ATP, biotinylated peptide substrate; read-out: IC50, inhibition of peptide substrate phosphorylation in SPA assay. On the procedure: as §1
Chain of recombinant human Cdk5/p25 (Q00535 whole entry): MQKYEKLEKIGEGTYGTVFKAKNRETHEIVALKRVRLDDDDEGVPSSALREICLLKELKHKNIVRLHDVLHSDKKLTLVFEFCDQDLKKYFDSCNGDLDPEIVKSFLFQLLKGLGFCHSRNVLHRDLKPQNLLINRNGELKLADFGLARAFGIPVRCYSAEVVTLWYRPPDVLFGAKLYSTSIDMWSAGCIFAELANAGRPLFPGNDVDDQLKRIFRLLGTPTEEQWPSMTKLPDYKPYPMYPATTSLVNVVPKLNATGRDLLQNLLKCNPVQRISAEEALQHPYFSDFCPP
Chain of recombinant human Cdk5/p25 (Q15078 99-307 partner limits assumed): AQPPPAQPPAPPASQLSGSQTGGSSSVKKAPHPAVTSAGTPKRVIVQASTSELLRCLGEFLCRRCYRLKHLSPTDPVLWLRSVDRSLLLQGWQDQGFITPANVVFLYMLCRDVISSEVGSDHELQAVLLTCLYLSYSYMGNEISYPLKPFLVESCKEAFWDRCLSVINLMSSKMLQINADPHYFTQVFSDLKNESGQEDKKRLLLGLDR
This biochemical assay measures inhibition of the recombinant human Cdk5/p25 protein kinase by different compounds with a synthetic peptide as a substrate.

A short description of data set [3]: Solubility (remark in discussion). It is filed as physicochemical. As to conditions: stated as likely cause of precipitation at higher concentrations.
The subject of data set [4] is human neuroblastoma SH-SY5Y cells. As to the kind of experiment: pSerCdk substrate (NMHC-B) phosphorylation by Western blot in SH-SY5Y cells. It is filed as cell-based. As to conditions: undifferentiated and RA-differentiated SH-SY5Y cells, 10 μM, 4 hours. On the procedure:
SH-SY5Y cells were grown in medium with equal amount of Minimum Essential Medium (MEM, InVitrogen, Sweden) and Nutrient Mixture Ham's F-12 (InVitrogen, Sweden), supplemented with 1% non-essential amino acids and with heat-inactivated FCS. Cells were plated at a density of 4.0 × 10^4 cells/cm^2 in 6-well culture dishes using cell medium with 10% FCS. For differentiation, the cells were treated 6 days with 10 μM all-trans-retinoic acid (RA, Sigma, Sweden) in the medium containing 1% FCS. In some experiments the cells were left undifferentiated and these cells were cultured in medium containing 10% FCS. […]
HEK293 cells were lysed in buffer containing 10 mM Tris-HCl pH 7.2, 150 mM NaCl, 2 mM EDTA, 50 mM NaF, 1 mM Na3O4V, 0.5% NP-40 and 1 complete protease inhibitor cocktail tablet (Roche Diagnostics Scandinavia AB, Sweden)/10 ml buffer. […] The protein content in the supernatants was measured using BCA Protein Assay kit (Pierce Biotechnology, Rockford, IL, USA). […] Average density of the bands was measured in Fluor-S™MultiImager (Bio-Rad Laboratories AB, Sweden) by using Quantity One software. The inhibition curves were analysed by non-linear regression using Graph Pad Prism.
We also investigated NMHC-B phosphorylation by Cdk5 in human neuroblastoma SH-SY5Y cells. […] Verification that the 200 kDa pSerCdk band detected in SH-SY5Y cells was in fact NMHC-B was done by immunoprecipitation.

Each structure is given as a SMILES string.

Consider `Cc1c(C(=O)c2ccc(Cl)cc2)cc(C(C)(C)C)c(O)c1C(=O)O` [5-(4-chlorobenzoyl)-2-hydroxy-6-methyl-3-tert-butyl-benzoic acid], for which the “inhibition of pSerCdk substrate phosphorylation” value in data set [1] (data not shown) was “did not show inhibition”. What is called IC50 is the concentration at which inhibition is half-maximal. For the molecule `NS(=O)(=O)c1cc(-c2nc3ccc(Cl)cc3s2)cs1` [AZ compound, 4-(6-chlorobenzothiazol-2-yl)thiophene-2-sulfonamide], the 50% inhibitory concentration (IC50) was found to be 0.355 µM in data set [2] and 4.36 µM in data set [1]. Moreover, the solubility entry in data set [3] was “poor solubility”. With `CC[C@H](CO)Nc1nc(NCc2ccccc2)c2ncn(C(C)C)c2n1` [Roscovitine], the “phosphorylation of 200 kDa pSerCdk substrate band” value in data set [4] is “completely inhibited”.

Take `CCn1c(=O)ccc2cnc(Nc3ccc(F)cc3)nc21` [WL compound, 7-ethyl-4-[(4-fluorophenyl)amino]-3,5,7-triaza bicyclo [4.4.0.] deca-1,3,5,9-tetraen-8-one]: the results for the IC50 in data set [2] and in data set [1] were 0.045 µM and 2.55 µM, respectively.

For the origin of these results see paper PMC2703631, “Identification of non-muscle myosin heavy chain as a substrate for Cdk5 and tool for drug screening” (Journal of Biomedical Science, 2009).
